In patent publication US6579882B2, “Cell adhesion-inhibiting antiinflammatory compounds” (Abbott Laboratories, priority 1998, dated 2003):

Assays:
E-Selectin = assay: CAM ELISA: E-selectin expression on TNF-stimulated HUVECs; assay type: cell-based; settings: 1 μM compound, primary human umbilical vein endothelial cells, compound 24 hours, then TNF 5 ng/mL 6 hours; for inhibition at 1 µM: Homo sapiens, Endothelial cell
Experimental: (§1) Pooled primary human umbilical vein endothelial cells (HtVEC's) (Clonetics) between passages 3 and 7 were plated in 96-well plates (Costar), 100 μL/well, 5×10^4 cells/mL in Clonetics EBM/2% FBS/EGF/Bovine brain extract/gentamicin in the absence of hydrocortisone. The following day, compounds of the invention were added in 10 μL/well medium, and the plates were incubated at 37° C. 24 hours after compound addition, TNF (Gibco/BRL) in 10 μL/well medium was added to a final concentration of 5 ng/mL, and the cells were incubated an additional 6 hours at 37° C. Then media was removed, and the plates were washed once with D-PBS (Gibco/BRL) and treated with primary antibodies (Becton Dickinson, City), 100 μL/well in D-PBS/2% BSA (Sigma)/0.01% azide. Primary antibodies at an initial concentration of 1 mg/mL were used at the following dilutions: anti-ELAM-1, 1:2000, anti-ICAM-1, 1:2000 and anti-VACM-1, 1:3000. Plates were stored overnight at 4° C., washed 3 times with D-PBS, and treated with secondary antibody (Jackson Labs), 100 μL/well 1:8000 dilution HRP-conjugated donkey anti-mouse IgG(H+L) in D-PBS/2%BSA. Plates were incubated a minimum of 1 hour at room temperature, washed 3 times with D-PBS and treated with 100 μL of orhto-phenylene diamine-2 HCl reagent per well. Plates were developed approximately 15 minutes and neutralized with 100 μL/well 1N sulfuric acid. Absorbance was read at 490 nm.

ICAM-1 = assay: CAM ELISA: ICAM-1 expression on TNF-stimulated HUVECs; assay type: cell-based; settings: 1 μM compound, primary human umbilical vein endothelial cells, compound 24 hours, then TNF 5 ng/mL 6 hours; for inhibition at 1 µM: Homo sapiens, Endothelial cell
Experimental: as §1

VCAM-1 = assay: CAM ELISA: VCAM-1 expression on TNF-stimulated HUVECs; assay type: cell-based; settings: 1 μM compound, primary human umbilical vein endothelial cells, compound 24 hours, then TNF 5 ng/mL 6 hours; for inhibition at 1 µM: Homo sapiens, Endothelial cell
Experimental: as §1

melting point | SMILES | inhibition at 1 µM (E-Selectin) | inhibition at 1 µM (ICAM-1) | inhibition at 1 µM (VCAM-1) | CAM ELISA % Inhibition at 1 μM E-Selectin (E-Selectin) | CAM ELISA % Inhibition at 1 μM ICAM-1 (ICAM-1) | CAM ELISA % Inhibition at 1 μM VCAM-1 (VCAM-1)
243 to 246 °C | Cc1ccc(Sc2ncnc3c(C)c(C(N)=O)sc23)cc1 [Example 16, 7-methyl-4-[(4-methylphenyl)thio]thieno[3,2-d]pyrimidine-6-carboxamide] | 35% | 32% | 19% | – | – | –
239 to 242 °C | NC(=O)c1cc2c(Sc3ccccn3)cncc2s1 [Example 20, 4-(2-pyridinylthio)thieno[2,3-c]pyridine-2-carboxamide] | 55% | 46% | 26% | – | – | –
– | CC(C)OC(=O)OC[n+]1cc(Oc2ccc(Cl)cc2)c2cc(C(N)=O)sc2c1 [Example 233, 2-(Aminocarbonyl)-4-(4-chlorophenoxy)-6-{[(isopropoxycarbonyl)oxy]methyl}thieno[2,3-c]pyridin-6-ium] | – | – | – | 74% | 79% | 62%
– | NC(=O)c1cc2c(OCc3ccccc3)cncc2s1 [Example 236, 4-(Benzyloxy)thieno[2,3-c]pyljdine-2-carboxamide] | – | – | – | 59% | 59% | 33%
– | NC(=O)c1cc2c(C(=O)Nc3ccc(Cl)cc3)cncc2s1 [Example 238, N-4-(4-Chlorophenyl)thieno[2,3-c]pyridine-2,4-dicarboxamide] | – | – | – | 46% | 47% | 17%
– | OCC(O)c1cc2c(Oc3ccc(Cl)cc3)cncc2s1 (centres unmarked) [Example 254, 1-[4-(4-Chlorophenoxy)thieno[2,3-c]pyridin-2-yl]-1,2-ethanediol] | 24% | 28% | 24% | – | – | –
– | OCC(O)c1cc2c(Oc3ccc(Br)cc3)cncc2s1 (centres unmarked) [Example 255, 1-[4-(4-Bromophenoxy)thieno[2,3-c]pjridin-2-yl]-1,2-ethanediol] | – | – | – | 67% | 65% | 19%
– | CNC(=O)C(O)C(O)c1cc2c(Oc3ccc(Br)cc3)cncc2s1 (centres unmarked) [Example 261, Methyl 3-[4-(4-Bromophenoxy)thieno[2,3-c]pyridin-2-yl]-2,3-dihydroxypropanamide] | 20% | 16% | 0% | – | – | –
– | Nc1nnc(-c2cc3c(Oc4ccc(Cl)cc4)cncc3s2)o1 [Example 275, 5-[4-(4-Chlorophenoxy)thieno[2,3-c]pyridin-2-yl]-1,3,4-oxadiazol-2-amine] | 73% | 72% | 64% | – | – | –
– | Nc1nnc(-c2cc3c(Oc4ccc(Br)cc4)cncc3s2)o1 [Example 276, 5-[4-(4-Bromophenoxy)thieno[2,3-c]pyridin-2-yl]-1,3,4-oxadiazol-2-ylamine] | 66% | 61% | 52% | – | – | –
– | Nc1nnc(-c2cc3c(Oc4ccc(C(F)(F)F)cc4)cncc3s2)o1 [Example 280, 5-{4-[4-(Trifluoromethyl)phenoxy]thieno[2,3-c]pyridin-2-yl}-1,3,4-oxadiazol-2-amine] | 73% | 77% | 69% | – | – | –
– | CSc1nnc(-c2cc3c(Oc4ccc(Cl)cc4)cncc3s2)o1 [Example 281] | – | – | – | 18% | 25% | 20%
– | Clc1ccc(Oc2cncc3sc(-c4nnn[nH]4)cc23)cc1 [Example 282A, 4-(4-Chlorophenoxy)-2-(1,2,3,4-tetrazol-5-yl)thieno[2,3-c]pyridine] | 8% | 15% | 5% | – | – | –
– | Clc1ccc(Oc2cncc3sc(-c4ncon4)cc23)cc1 [Example 287, 4-(4-Chlorophenoxy)-2-(1,2,4-oxadiazol-3-yl)thieno[2,3-c]pyridine] | 49% | 49% | 27% | – | – | –
– | Nc1nc(-c2cc3c(Oc4ccc(Cl)cc4)cncc3s2)no1 [Example 289, 3-[4-(4-Chlorophenoxy)thieno[2,3-c]pyridin-2-yl]-1,2,4-oxadiazol-5-amine] | 64% | 62% | 52% | – | – | –
– | Cc1nnc(-c2cc3c(Oc4ccc(C(F)(F)F)cc4)cncc3s2)o1 [Example 290, 2-(5-Methyl-1,3,4-oxadiazol-2-yl)-4-[4-(trifluoromethyl)phenoxy]thieno[2,3-c]pyridine] | 42% | 53% | 48% | – | – | –
– | CC(C)(C)OC(=O)Nc1csc(-c2cc3c(Oc4ccc(Cl)cc4)cncc3s2)n1 [Example 294, tert-Butyl 2-[4-(4-Chlorophenoxy)thieno[2,3-c]pyridin-2-yl]-1,3-thiazol-4-ylcarbamate] | 46% | 45% | 24% | – | – | –
– | NC(=O)c1sc2cncc(Cl)c2c1N [Example 301, 3-Amino-4-chlorothieno[2,3-c]pyridine-2-carboxamide] | 44% | 48% | 34% | – | – | –
– | CNC(=O)c1sc2cncc(Oc3ccc(Cl)cc3)c2c1C [Example 303, 4-(4-Chlorophenoxy)-N, 3-dimethylthieno[2,3-c]pyridine-2-carboxamide] | 65% | 66% | 33% | – | – | –
– | NC(=O)c1cc2c(Oc3ccc(Cl)cc3)cnc(Cl)c2s1 [Example 311, 7-Chloro-4-(4-chlorophenoxy)thieno[2,3-c]pyridine-2-carboxamide] | 72% | 77% | 36% | – | – | –
– | CNC(=O)c1cc2c(Oc3ccc(Cl)cc3)cnc(Cl)c2s1 [Example 312, 7-Chloro-4-(4-chlorophenoxy)-N-methylthieno[2,3-c]pyridine-2-carboxamide] | 64% | 76% | 42% | – | – | –
– | NC(=O)c1cc2c(Oc3ccc(Br)cc3)cnc(Cl)c2s1 [Example 316, 4-(4-Bromophenoxy)-7-chlorothieno[2,3-c]pyridine-2-carboxamide] | 76% | 68% | 42% | – | – | –
– | O=C(NCCO)c1cc2c(Oc3ccc(C(F)(F)F)cc3)cnc(Cl)c2s1 [Example 320] | – | – | – | 64% | 67% | 55%
– | CNC(=O)c1nc2cncc(Oc3ccc(C)cc3)c2s1 [Example 325] | – | – | – | 76% | 68% | 42%
– | NC(=O)c1cc2c(C=Cc3ccccc3)cncc2s1 [Example 329, 4-(2-Phenylethenyl)thieno[2,3-c]pyridine-2-carboxamide] | 72% | 62% | 64% | – | – | –
– | NC(=O)c1cc2c(Oc3ccc(Cl)cc3)c(Cl)ncc2s1 [Example 340, 5-Chloro-4-(4-chlorophenoxy)thieno[2,3-c]pyridine-2-carboxamide] | 18% | 33% | 20% | – | – | –
